Results reported in PubChem BioAssay (NCI).
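Step 1: Grow cells in 96-well plates. Step 2: Expose to compound for 48 hours at 5 concentrations. Step 3: Interpolate endpoints linearly; if unreached, use highest concentration. GI50: concentration for 50% inhibition of growth. TGI: total growth inhibition.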

Experiments:
Test in all cases: growth of human tumour cells (NCI), 48 h
HCC-2998 colon = tested on: HCC-2998 colon
UACC-257 melanoma = tested on: UACC-257 melanoma
MCF7 breast = tested on: MCF7 breast
RXF 393 renal = tested on: RXF 393 renal
HOP-62 NSCLC = tested on: HOP-62 NSCLC
K-562 leukemia = tested on: K-562 leukemia
SNB-75 CNS = tested on: SNB-75 CNS
OVCAR-3 ovarian = tested on: OVCAR-3 ovarian
CCRF-CEM leukemia = tested on: CCRF-CEM leukemia
NCI/ADR-RES ovarian = tested on: NCI/ADR-RES ovarian
HL-60(TB) leukemia = tested on: HL-60(TB) leukemia
SW-620 colon = tested on: SW-620 colon
MALME-3M melanoma = tested on: MALME-3M melanoma
PC-3 prostate = tested on: PC-3 prostate
SF-539 CNS = tested on: SF-539 CNS
MOLT-4 leukemia = tested on: MOLT-4 leukemia
A549 NSCLC = tested on: A549 NSCLC
SF-268 CNS = tested on: SF-268 CNS
A498 renal = tested on: A498 renal
SK-MEL-28 melanoma = tested on: SK-MEL-28 melanoma
UO-31 renal = tested on: UO-31 renal
DU-145 prostate = tested on: DU-145 prostate
OVCAR-8 ovarian = tested on: OVCAR-8 ovarian
TK-10 renal = tested on: TK-10 renal
NCI-H460 lung = tested on: NCI-H460 lung
SK-MEL-5 melanoma = tested on: SK-MEL-5 melanoma
MDA-MB-435 = tested on: MDA-MB-435
M14 melanoma = tested on: M14 melanoma
RPMI-8226 leukemia = tested on: RPMI-8226 leukemia
KM12 colon = tested on: KM12 colon
NCI-H522 lung = tested on: NCI-H522 lung
OVCAR-4 ovarian = tested on: OVCAR-4 ovarian
ACHN renal = tested on: ACHN renal
NCI-H226 lung = tested on: NCI-H226 lung
UACC-62 melanoma = tested on: UACC-62 melanoma
786-0 renal = tested on: 786-0 renal
T-47D breast = tested on: T-47D breast
BT-549 breast = tested on: BT-549 breast
MDA-MB-231 breast = tested on: MDA-MB-231 breast
CAKI-1 renal = tested on: CAKI-1 renal
NCI-H23 lung = tested on: NCI-H23 lung
IGROV1 ovarian = tested on: IGROV1 ovarian
SNB-19 CNS = tested on: SNB-19 CNS
SN12C renal = tested on: SN12C renal
HT29 colon = tested on: HT29 colon
SF-295 CNS = tested on: SF-295 CNS
U251 CNS = tested on: U251 CNS
HCT-15 colon = tested on: HCT-15 colon
HS 578T breast = tested on: HS 578T breast
OVCAR-5 ovarian = tested on: OVCAR-5 ovarian
HCT-116 colon = tested on: HCT-116 colon
COLO 205 colon = tested on: COLO 205 colon
SK-OV-3 ovarian = tested on: SK-OV-3 ovarian

Which results are given for CC(C)OP(=O)(O)c1ncc(-c2ccc(C(F)(F)F)cc2)c(NC2CCCCCC2)n1?
GI50 (HCC-2998 colon): > 100 µM; TGI (HCC-2998 colon): > 100 µM; GI50 (UACC-257 melanoma): > 100 µM; TGI (UACC-257 melanoma): > 100 µM; GI50 (MCF7 breast): > 100 µM; TGI (MCF7 breast): > 100 µM; GI50 (RXF 393 renal): > 100 µM; TGI (RXF 393 renal): > 100 µM; GI50 (HOP-62 NSCLC): 81.2 µM; TGI (HOP-62 NSCLC): > 100 µM; GI50 (K-562 leukemia): 55 µM; TGI (K-562 leukemia): > 100 µM; GI50 (SNB-75 CNS): > 100 µM; TGI (SNB-75 CNS): > 100 µM; GI50 (OVCAR-3 ovarian): 87 µM; TGI (OVCAR-3 ovarian): > 100 µM; GI50 (CCRF-CEM leukemia): > 100 µM; TGI (CCRF-CEM leukemia): > 100 µM; GI50 (NCI/ADR-RES ovarian): > 100 µM; TGI (NCI/ADR-RES ovarian): > 100 µM; GI50 (HL-60(TB) leukemia): 38.2 µM; TGI (HL-60(TB) leukemia): > 100 µM; GI50 (SW-620 colon): > 100 µM; TGI (SW-620 colon): > 100 µM; GI50 (MALME-3M melanoma): > 100 µM; TGI (MALME-3M melanoma): > 100 µM; GI50 (PC-3 prostate): 57.1 µM; TGI (PC-3 prostate): > 100 µM; GI50 (SF-539 CNS): > 100 µM; TGI (SF-539 CNS): > 100 µM; GI50 (MOLT-4 leukemia): > 100 µM; TGI (MOLT-4 leukemia): > 100 µM; GI50 (A549 NSCLC): > 100 µM; TGI (A549 NSCLC): > 100 µM; GI50 (SF-268 CNS): > 100 µM; TGI (SF-268 CNS): > 100 µM; GI50 (A498 renal): > 100 µM; TGI (A498 renal): > 100 µM; GI50 (SK-MEL-28 melanoma): > 100 µM; TGI (SK-MEL-28 melanoma): > 100 µM; GI50 (UO-31 renal): > 100 µM; TGI (UO-31 renal): > 100 µM; GI50 (DU-145 prostate): > 100 µM; TGI (DU-145 prostate): > 100 µM; GI50 (OVCAR-8 ovarian): > 100 µM; TGI (OVCAR-8 ovarian): > 100 µM; GI50 (TK-10 renal): > 100 µM; TGI (TK-10 renal): > 100 µM; GI50 (NCI-H460 lung): > 100 µM; TGI (NCI-H460 lung): > 100 µM; GI50 (SK-MEL-5 melanoma): 51 µM; TGI (SK-MEL-5 melanoma): > 100 µM; GI50 (MDA-MB-435): > 100 µM; TGI (MDA-MB-435): > 100 µM; GI50 (M14 melanoma): > 100 µM; TGI (M14 melanoma): > 100 µM; GI50 (RPMI-8226 leukemia): 20.9 µM; TGI (RPMI-8226 leukemia): > 100 µM; GI50 (KM12 colon): 68.8 µM; TGI (KM12 colon): > 100 µM; GI50 (NCI-H522 lung): 38.5 µM; TGI (NCI-H522 lung): > 100 µM; GI50 (OVCAR-4 ovarian): 61.2 µM; TGI (OVCAR-4 ovarian): > 100 µM; GI50 (ACHN renal): > 100 µM; TGI (ACHN renal): > 100 µM; GI50 (NCI-H226 lung): > 100 µM; TGI (NCI-H226 lung): > 100 µM; GI50 (UACC-62 melanoma): 49.7 µM; TGI (UACC-62 melanoma): > 100 µM; GI50 (786-0 renal): > 100 µM; TGI (786-0 renal): > 100 µM; GI50 (T-47D breast): 34.9 µM; TGI (T-47D breast): > 100 µM; GI50 (BT-549 breast): > 100 µM; TGI (BT-549 breast): > 100 µM; GI50 (MDA-MB-231 breast): > 100 µM; TGI (MDA-MB-231 breast): > 100 µM; GI50 (CAKI-1 renal): > 100 µM; TGI (CAKI-1 renal): > 100 µM; GI50 (NCI-H23 lung): > 100 µM; TGI (NCI-H23 lung): > 100 µM; GI50 (IGROV1 ovarian): > 100 µM; TGI (IGROV1 ovarian): > 100 µM; GI50 (SNB-19 CNS): > 100 µM; TGI (SNB-19 CNS): > 100 µM; GI50 (SN12C renal): > 100 µM; TGI (SN12C renal): > 100 µM; GI50 (HT29 colon): > 100 µM; TGI (HT29 colon): > 100 µM; GI50 (SF-295 CNS): > 100 µM; TGI (SF-295 CNS): > 100 µM; GI50 (U251 CNS): 77.9 µM; TGI (U251 CNS): > 100 µM; GI50 (HCT-15 colon): > 100 µM; TGI (HCT-15 colon): > 100 µM; GI50 (HS 578T breast): > 100 µM; TGI (HS 578T breast): > 100 µM; GI50 (OVCAR-5 ovarian): > 100 µM; TGI (OVCAR-5 ovarian): > 100 µM; GI50 (HCT-116 colon): > 100 µM; TGI (HCT-116 colon): > 100 µM; GI50 (COLO 205 colon): > 100 µM; TGI (COLO 205 colon): > 100 µM; GI50 (SK-OV-3 ovarian): > 100 µM; TGI (SK-OV-3 ovarian): > 100 µM
